Patent EP0840781B1, “METHODS AND DEVICES FOR THE REMOVAL OF PSORALENS FROM BLOOD PRODUCTS” (Cerus Corporation, priority 1995, dated 1996)
Marks after values point to notes of the source that are not given here.

Legend:
[1] = tested on: Chinese hamster ovary (CHO) cells; assay: In vitro genotoxicity screen in CHO cells (toxic dose); assay type: cell-based; settings: approximately 3 hours exposure in the dark, dilutions 1-1000 µg/ml
Excerpt: The positive control was methylmethane sulfonate.
Coverslips were mounted with Permount.

[2] = tested on: GMP-140 expression on platelets; assay: GMP-140 (p-selectin) expression on platelets, CD62 antibody, flow cytometry; assay type: cell-based, human; settings: T = test unit (150 µM S-59, 3 Joules/cm^2 UVA, RD 8 hours on day 1)
Procedure: (§1) To measure the effects of the present compounds and methods of decontamination on platelet function using these four indicators, four samples were prepared for each compound tested, two control samples and two containing compound. […] These were each transferred under sterile conditions to 50 ml centrifuge tubes, then aliquots of each unit were transferred into a second set of 50 ml sterile centrifuge tubes. […] The samples were pipetted gently up and down to mix. […] Samples were treated in one of two different sized bags, having either 3 ml or 8 ml capacity. […] For each compound tested, two control samples without compound were prepared by again removing aliquots of platelet concentrate (17 ml if using an 8 ml bag, 4 ml if using a 3 ml bag) from the same one of the first set of 50 ml centrifuge tubes from which the compound sample was drawn, and dividing into Medibags, as before. […]

platelet concentrate [3] = assay: Maintenance of pH of platelet concentrate; assay type: cell-based, human; settings: T = test unit (150 µM S-59, 3 Joules/cm^2 UVA, RD 8 hours on day 1)
Procedure: as §1

platelets [4] = assay: Platelet aggregation (ADP and collagen, aggregometer); assay type: cell-based, human; settings: for (%) Aggregation: T = test unit (150 µM S-59, 3 Joules/cm^2 UVA, RD 8 hours on day 1)
Procedure: To measure the effects of the present compounds and methods of decontamination on platelet function using these four indicators, four samples were prepared for each compound tested, two control samples and two containing compound. […] These were each transferred under sterile conditions to 50 ml centrifuge tubes, then aliquots of each unit were transferred into a second set of 50 ml sterile centrifuge tubes. […] The samples were pipetted gently up and down to mix. […] Samples were treated in one of two different sized bags, having either 3 ml or 8 ml capacity. […] For each compound tested, two control samples without compound were prepared by again removing aliquots of platelet concentrate (17 ml if using an 8 ml bag, 4 ml if using a 3 ml bag) from the same one of the first set of 50 ml centrifuge tubes from which the compound sample was drawn, and dividing into Medibags, as before. […] Then all experimental and control Medibags were placed on a platelet shaker for storage for 5 days.

[5] = tested on: platelets suspended in 35% plasma/65% PAS III; assay: Partitioning and distribution of S-59 in platelet concentrate before and after UVA (3H-S-59, HPLC); settings: C0 = 50 µM (FIG. 25A)
Excerpt: […] When designing a "capture" or "scrub" device for psoralen removal, an important consideration is the identification and quantification of the residual levels of low molecular weight photoproducts. Several properties of the platelet mixture (e.g., lipid content, platelet content, hemoglobin/RBC content) can affect the final partitioning of psoralen and the amount of each photoproduct that must be removed during the capture or scrub process.
Upon addition of S-59 to platelets, the S-59 rapidly partitions, establishing an equilibrium between S-59 in the plasma and S-59 within the platelets. […] In addition, higher percentages of S-59 will partition to the platelets if long incubation periods (e.g., greater than 60 minutes) occur between the addition of S-59 and illumination with UVA. The amount of S-59 which partitions to the platelets ultimately determines how much S-59 remains associated with platelets, how much is associated with plasma macromolecules, and how much remains as free photoproduct.
During the UVA illumination process, S-59 undergoes a photochemical reaction to form several low molecular weight photoproducts in addition to associating with macromolecules in both the platelet and the plasma fractions. […]
The S-59 which is not amenable to removal by the scrub/capture process can also be monitored using ^3H-labeled S-59. […]

platelets [6] = assay: ATP content / ATP secretion of platelets; assay type: cell-based, human; settings: T = test unit (150 µM S-59, 3 Joules/cm^2 UVA, RD 8 hours on day 1)
Procedure: Samples were removed from the units after 24 hours and were analyzed for platelet count and pH. After 5 days, samples were taken and also analyzed for platelet count and pH, as well as ATP content and activation by GMP-140. Controls included a sample of PCD-treated PC without adsorbent (no-adsorbent control) and a sample of PC that was not treated. The results for each of the platelet function assays are present in Table G (the "*" In Table G indicates a contact time of three hours only). TABLE G
(§2) For the evaluation of in vitro platelet function, platelet samples were withdrawn from both the control and test units before treatment and after treatment on days 2, 5, and 7. The following parameters were analyzed: pH, pO2, pCO2, bicarbonate concentration, platelet count, morphology, aggregation, platelet shape change, hypotonic shock response, lactate production, glucose consumption, ATP secretion, p-selectin expression, and microvesicle formation. Several of these assays, including pH, morphology score, platelet shape change, and hypotonic shock response, have been reported in the literature to correlate with in- vivo post-transfusion recovery and survival. The Student's paired t-test was used for statistical analysis.

platelets [7] = assay: Platelet morphology score; assay type: cell-based, human; settings: T = test unit (150 µM S-59, 3 Joules/cm^2 UVA, RD 8 hours on day 1)
Procedure: as §2

platelets [8] = assay: Platelet shape change; assay type: cell-based, human; settings: T = test unit (150 µM S-59, 3 Joules/cm^2 UVA, RD 8 hours on day 1)
Procedure: Platelets are able to regain their ability to change shape following transfer from the RD and incubation in a PL 2410 Plastic container (Baxter) in an equal volume of autologous plasma.
as §2

platelets [9] = assay: Hypotonic shock response (HSR) of platelets; assay type: cell-based, human; settings: T = test unit (150 µM S-59, 3 Joules/cm^2 UVA, RD 8 hours on day 1)
Procedure: as §2

platelet concentrate [10] = assay: pO2, pCO2 and bicarbonate concentration of platelet concentrate; assay type: cell-based, human; settings: T = test unit (150 µM S-59, 3 Joules/cm^2 UVA, RD 8 hours on day 1)
Procedure: In addition to the data summarized in Table E, measurements of pH, pO2, and pCO2 were taken over a five-day storage period. No significant differences between the treated and control units were observed. Finally, it should be noted that these experiments were performed with standard Amberlite™ resins (i.e., resins which were not treated by Supelco, Inc.).
as §2

platelets [11] = assay: Microvesicle formation of platelets; assay type: cell-based, human; settings: T = test unit (150 µM S-59, 3 Joules/cm^2 UVA, RD 8 hours on day 1)
Procedure: as §2

`Cc1oc2c(C)c3oc(=O)cc(C)c3cc2c1CN` [AMT, 4'-Aminomethyl-4,5',8-trimethylpsoralen, reference compound] was tested, and the “genotoxic (toxic) dose” value [1] was 30 µg/mL.
With `Cc1oc2c(C)c3oc(=O)cc(C)c3cc2c1COCCN` [Compound 2, 4'-(4-amino-2-oxa)butyl-4,5',8-trimethylpsoralen] the “(%) p-Selectin-Positive” value ([2]; Day 2) was 49±5 %, the “(%) p-Selectin-Positive” value ([2]; Day 5) was 58±5% and the “(%) p-Selectin-Positive” value ([2]; Day 7) was 60±7%. It also gave a pH (platelet concentrate [3]; Day 2) of 6.94±0.05, a pH (platelet concentrate [3]; Day 5) of 6.92±0.06 and a pH (platelet concentrate [3]; Day 7) of 6.91±0.05. For the same compound, the “reduction in aggregation from the day 1 control” value (platelets [4]; 100 µM compound, 5 Joules/cm^2, 5 days storage (FIG. 21B)) was “approximately 8%”, the “(%) Aggregation” value (platelets [4]; Day 2) was 88±4% and the “(%) Aggregation” value (platelets [4]; Day 5) was 81±7%. The “(%) Aggregation” value (platelets [4]; Day 7) was 81±4%, the “time to S-59 equilibrium (uptake by platelets)” value [5] was “approximately two” and the ATP (platelets [6]; Day 2) was 1.0±0.1 Nmoles Per 10* Platelets. For the same compound, the ATP (platelets [6]; Day 5) was 0.7±0.2 Nmoles Per 10* Platelets, the ATP (platelets [6]; Day 7) was 0.6±0.2 Nmoles Per 10* Platelets and the “Morphology (Out Of 400)” value (platelets [7]; Day 2) was 302±16. The “Morphology (Out Of 400)” value (platelets [7]; Day 5) was 290±20, the “Morphology (Out Of 400)” value (platelets [7]; Day 7) was 274±12 and the “Platelet Shape Change” value (platelets [8]; Day 2) was 1.0±0.1. For the same compound, the “Platelet Shape Change” value (platelets [8]; Day 5) was 0.9±0.1, the “Platelet Shape Change” value (platelets [8]; Day 7) was 0.9±0.3 and the “(%) HSR” value (platelets [9]; Day 2) was 52±5 %. The “(%) HSR” value (platelets [9]; Day 5) was 45±3%, the “(%) HSR” value (platelets [9]; Day 7) was 48±8% and the Bicarbonate (platelet concentrate [10]; Day 2) was 6.3 ± 0.3 mM. For the same compound, the pCO2 (platelet concentrate [10]; Day 2) was 29.2±3.8 mm Hg, the pO2 (platelet concentrate [10]; Day 2) was 68.3±19.4 mm Hg and the Bicarbonate (platelet concentrate [10]; Day 5) was 4.8 ± 0.5 mM. It also gave a pCO2 (platelet concentrate [10]; Day 5) of 23.7±3.5 mm Hg, a pO2 (platelet concentrate [10]; Day 5) of 84.8±22.5 mm Hg and a Bicarbonate (platelet concentrate [10]; Day 7) of 4.2 ± 0.7 mM. For the same compound, the pCO2 (platelet concentrate [10]; Day 7) was 20.7±2.4 mm Hg, the pO2 (platelet concentrate [10]; Day 7) was 88.8±20.2 mm Hg and the “(%) Microvesicle Formation” value (platelets [11]; Day 2) was 0.9±0.2%. The “(%) Microvesicle Formation” value (platelets [11]; Day 5) was 0.8±0.2% and the “(%) Microvesicle Formation” value (platelets [11]; Day 7) was 1.7±1.7%.
